This note sets out measurements from ChEMBL document CHEMBL1149698, “Metallocene-based antimalarials: an exploration into the influence of the ferrocenyl moiety on in vitro antimalarial activity in chloroquine-sensitive and chloroquine-resistant strains of Plasmodium falciparum” (Bioorg Med Chem, 2007).

Experiment [1] concerns Plasmodium falciparum. The experiment can be described thus: Antimalarial activity against chloroquine-sensitive Plasmodium falciparum 3D7. It is filed as functional. Particulars: read-out: ED50 (the source's name).
In experiment [2] the test system is Plasmodium falciparum. Description: Antimalarial activity against chloroquine-resistant Plasmodium falciparum K1. It is filed as functional. Particulars: read-out: ED50 (the source's name).

For the compound `CCN(CC)CCCC(C)Nc1ccnc2cc(Cl)ccc12` (configuration not stated) [CHLOROQUINE], the figures for the EC50 in the experiment with Plasmodium falciparum [1] and with Plasmodium falciparum [2] were 8.52 nM and 290 nM, respectively.
